A word on the Ki: it is a measure of affinity in units of concentration, obtained from inhibition or displacement. A higher Ki goes with a looser hold on the target.

The values that follow come from US10213433B2 (AbbVie Inc., priority 2010, dated 2019).

Some results are limits rather than exact numbers.

Sequence of Bcl-2 protein (P10415 whole entry): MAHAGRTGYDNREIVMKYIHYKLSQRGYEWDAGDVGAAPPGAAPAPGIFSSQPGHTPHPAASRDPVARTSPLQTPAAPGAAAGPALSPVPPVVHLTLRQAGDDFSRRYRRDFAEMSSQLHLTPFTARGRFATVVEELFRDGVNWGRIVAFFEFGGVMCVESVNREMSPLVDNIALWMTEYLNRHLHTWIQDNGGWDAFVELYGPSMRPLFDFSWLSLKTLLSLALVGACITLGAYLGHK

The test concerns the target Bcl-2 protein (Homo sapiens (Human), UniProt P10415). Kind of test: Bcl-2 binding TR-FRET (Time-Resolved Fluorescence-Resonance-Energy-Transfer) assay. Conditions: inhibition constant for binding to Bcl-2 protein. The text has this:
The smaller the Ki value, the greater is the binding affinity.
For orientation: Time-resolved FRET reads energy transfer from a long-lived donor to a nearby acceptor.
For `CC1(C)CCC(CN2CCN(c3ccc(C(=O)NS(=O)(=O)c4ccc(NC[C@H]5CCN(C6CCOCC6)C5)c([N+](=O)[O-])c4)c(Oc4cnc5[nH]ccc5c4)c3)CC2)=C(c2ccc(Cl)cc2)C1` [Compound 118, 4-(4-{[2-(4-chlorophenyl)-4,4-dimethylcyclohex-1-en-1-yl]methyl}piperazin-1-yl)-N-{[3-nitro-4-({[(3R)-1-tetrahydro-2H-pyran-4-ylpyrrolidin-3-yl]methyl}amino)phenyl]sulfonyl}-2-(1H-pyrrolo[2,3-b]pyridin-5-yloxy)benzamide], the Ki is less than 10 pM.
With `CN1CCC(F)(COc2ccc(S(=O)(=O)NC(=O)c3ccc(N4CCN(CC5=C(c6ccc(Cl)cc6)CC(C)(C)CC5)CC4)cc3Oc3cnc4[nH]ccc4c3)cc2Cl)CC1` [Compound 283, N-({3-chloro-4-[(4-fluoro-1-methylpiperidin-4-yl)methoxy]phenyl}sulfonyl)-4-(4-{[2-(4-chlorophenyl)-4,4-dimethylcyclohex-1-en-1-yl]methyl}piperazin-1-yl)-2-(1H-pyrrolo[2,3-b]pyridin-5-yloxy)benzamide] the figure was less than 10 pM.
To `CC1(C)CCC(CN2CCN(c3ccc(C(=O)NS(=O)(=O)c4ccc(NCC5CN(C6COC6)CCO5)c(S(=O)(=O)C(F)(F)F)c4)c(Oc4cnc5[nH]ccc5c4)c3)CC2)=C(c2ccc(Cl)cc2)C1` (stereo not drawn) [Compound 241, 4-(4-{[2-(4-chlorophenyl)-4,4-dimethylcyclohex-1-en-1-yl]methyl}piperazin-1-yl)-N-({4-({[4-(oxetan-3-yl)morpholin-2-yl]methyl}amino)-3-[(trifluoromethyl)sulfonyl]phenyl}sulfonyl)-2-(1H-pyrrolo[2,3-b]pyridin-5-yloxy)benzamide] belongs less than 10 pM; to `CC1(C)CCC(CN2CCN(c3ccc(C(=O)NS(=O)(=O)c4ccc(N[C@@H]5CCN(C6CC6)C5)c([N+](=O)[O-])c4)c(Oc4cnc5[nH]ccc5c4)c3)CC2)=C(c2ccc(Cl)cc2)C1` [Compound 144, 4-(4-{[2-(4-chlorophenyl)-4,4-dimethylcyclohex-1-en-1-yl]methyl}piperazin-1-yl)-N-[(4-{[(3R)-1-cyclopropylpyrrolidin-3-yl]amino}-3-nitrophenyl)sulfonyl]-2-(1H-pyrrolo[2,3-b]pyridin-5-yloxy)benzamide], less than 10 pM; to `CC1(C)CCC(CN2CCN(c3ccc(C(=O)NS(=O)(=O)c4ccc(NC5CCN(C6CCOC6)CC5)c([N+](=O)[O-])c4)c(Oc4cnc5[nH]ccc5c4)c3)CC2)=C(c2ccc(Cl)cc2)C1` (stereo not drawn) [Compound 143, 4-(4-{[2-(4-chlorophenyl)-4,4-dimethylcyclohex-1-en-1-yl]methyl}piperazin-1-yl)-N-({3-nitro-4-[(1-tetrahydrofuran-3-ylpiperidin-4-yl)amino]phenyl}sulfonyl)-2-(1H-pyrrolo[2,3-b]pyridin-5-yloxy)benzamide], less than 10 pM.
With `CC1(C)CCC(CN2CCN(c3ccc(C(=O)NS(=O)(=O)c4ccc(N[C@@H]5CCN(S(C)(=O)=O)C5)c([N+](=O)[O-])c4)c(Oc4cnc5[nH]ccc5c4)c3)CC2)=C(c2ccc(Cl)cc2)C1` [Compound 149, 4-(4-{[2-(4-chlorophenyl)-4,4-dimethylcyclohex-1-en-1-yl]methyl}piperazin-1-yl)-N-[(4-{[(3R)-1-(methylsulfonyl)pyrrolidin-3-yl]amino}-3-nitrophenyl)sulfonyl]-2-(1H-pyrrolo[2,3-b]pyridin-5-yloxy)benzamide] the figure was less than 10 pM; with `CC1(C)CCC(CN2CCN(c3ccc(C(=O)NS(=O)(=O)c4ccc(NC[C@H]5CN(C6COC6)CCO5)c([N+](=O)[O-])c4)c(Oc4cnc5[nH]ccc5c4)c3)CC2)=C(c2ccc(Cl)cc2)C1` [Compound 361, 4-(4-{[2-(4-chlorophenyl)-4,4-dimethylcyclohex-1-en-1-yl]methyl}piperazin-1-yl)-N-{[3-nitro-4-({[(2S)-4-(oxetan-3-yl)morpholin-2-yl]methyl}amino)phenyl]sulfonyl}-2-(1H-pyrrolo[2,3-b]pyridin-5-yloxy)benzamide], less than 10 pM.
Compound `CC1(C)CC(c2ccc(Cl)cc2)=C(CN2CCN(c3ccc(C(=O)NS(=O)(=O)c4cnc(OCC5CCOCC5)c(C#N)c4)c(Oc4cnc5[nH]ccc5c4)c3)CC2)CO1` [Compound 35, 4-(4-{[4-(4-chlorophenyl)-6,6-dimethyl-5,6-dihydro-2H-pyran-3-yl]methyl}piperazin-1-yl)-N-{[5-cyano-6-(tetrahydro-2H-pyran-4-ylmethoxy)pyridin-3-yl]sulfonyl}-2-(1H-pyrrolo[2,3-b]pyridin-5-yloxy)benzamide] yielded a Ki of less than 10 pM.
On to `CN(C)CC(=O)N1CC[C@@H](Nc2ccc(S(=O)(=O)NC(=O)c3ccc(N4CCN(CC5=C(c6ccc(Cl)cc6)CC(C)(C)CC5)CC4)cc3Oc3cnc4[nH]ccc4c3)cc2[N+](=O)[O-])C1` [Compound 255, 4-(4-{[2-(4-chlorophenyl)-4,4-dimethylcyclohex-1-en-1-yl]methyl}piperazin-1-yl)-N-[(4-{[(3R)-1-(N,N-dimethylglycyl)pyrrolidin-3-yl]amino}-3-nitrophenyl)sulfonyl]-2-(1H-pyrrolo[2,3-b]pyridin-5-yloxy)benzamide], for which the Ki was less than 10 pM.
To `CC1(C)CC(c2ccc(Cl)cc2)=C(CN2CCN(c3ccc(C(=O)NS(=O)(=O)c4cnc(OCC5CCOCC5)c(Cl)c4)c(Oc4cnc5[nH]ccc5c4)c3)CC2)CO1` [Compound 41, 4-(4-{[4-(4-chlorophenyl)-6,6-dimethyl-5,6-dihydro-2H-pyran-3-yl]methyl}piperazin-1-yl)-N-{[5-chloro-6-(tetrahydro-2H-pyran-4-ylmethoxy)pyridin-3-yl]sulfonyl}-2-(1H-pyrrolo[2,3-b]pyridin-5-yloxy)benzamide] belongs less than 10 pM; to `CC1(C)CCC(CN2CCN(c3ccc(C(=O)NS(=O)(=O)c4ccc(NC5CN(C6CCOCC6)C5)c([N+](=O)[O-])c4)c(Oc4cnc5[nH]ccc5c4)c3)CC2)=C(c2ccc(Cl)cc2)C1` [Compound 116, 4-(4-{[2-(4-chlorophenyl)-4,4-dimethylcyclohex-1-en-1-yl]methyl}piperazin-1-yl)-N-({3-nitro-4-[(1-tetrahydro-2H-pyran-4-ylazetidin-3-yl)amino]phenyl}sulfonyl)-2-(1H-pyrrolo[2,3-b]pyridin-5-yloxy)benzamide], less than 10 pM; to `CC1(C)CCC(CN2CCN(c3ccc(C(=O)NS(=O)(=O)c4ccc(N[C@H]5CCN(C6CCOC(C)(C)C6)C5)c([N+](=O)[O-])c4)c(Oc4cnc5[nH]ccc5c4)c3)CC2)=C(c2ccc(Cl)cc2)C1` (stereo partly drawn) [Compound 133, 4-(4-{[2-(4-chlorophenyl)-4,4-dimethylcyclohex-1-en-1-yl]methyl}piperazin-1-yl)-N-[(4-{[(3S)-1-(2,2-dimethyltetrahydro-2H-pyran-4-yl)pyrrolidin-3-yl]amino}-3-nitrophenyl)sulfonyl]-2-(1H-pyrrolo[2,3-b]pyridin-5-yloxy)benzamide], less than 10 pM.
To `COCCOCCN1CCOC(CNc2ccc(S(=O)(=O)NC(=O)c3ccc(N4CCN(CC5=C(c6ccc(Cl)cc6)CC(C)(C)CC5)CC4)cc3Oc3cnc4[nH]ccc4c3)cc2[N+](=O)[O-])C1` (stereo not drawn) [Compound 213, 4-(4-{[2-(4-chlorophenyl)-4,4-dimethylcyclohex-1-en-1-yl]methyl}piperazin-1-yl)-N-({4-[({4-[2-(2-methoxyethoxyl)ethyl]morpholin-2-yl}methyl)amino]-3-nitrophenyl}sulfonyl)-2-(1H-pyrrolo[2,3-b]pyridin-5-yloxy)benzamide] belongs less than 10 pM; to `CC1(C)CCC(CN2CCN(c3ccc(C(=O)NS(=O)(=O)c4ccc(NCCCN(C5CCC5)C5CC5)c([N+](=O)[O-])c4)c(Oc4cnc5[nH]ccc5c4)c3)CC2)=C(c2ccc(Cl)cc2)C1` [Compound 320, 4-(4-{[2-(4-chlorophenyl)-4,4-dimethylcyclohex-1-en-1-yl]methyl}piperazin-1-yl)-N-{[4-({3-[cyclobutyl(cyclopropyl)amino]propyl}amino)-3-nitrophenyl]sulfonyl}-2-(1H-pyrrolo[2,3-b]pyridin-5-yloxy)benzamide], less than 10 pM; to `CC1(C)CCC(CN2CCN(c3ccc(C(=O)NS(=O)(=O)c4ccc(NCC5CNCCO5)c([N+](=O)[O-])c4)c(Oc4cnc5[nH]ccc5c4)c3)CC2)=C(c2ccc(Cl)cc2)C1` (stereo not drawn) [Compound 113, 4-(4-{[2-(4-chlorophenyl)-4,4-dimethylcyclohex-1-en-1-yl]methyl}piperazin-1-yl)-N-({4-[(morpholin-2-ylmethyl)amino]-3-nitrophenyl}sulfonyl)-2-(1H-pyrrolo[2,3-b]pyridin-5-yloxy)benzamide], less than 10 pM.
With `CC1(C)CCC(CN2CCN(c3ccc(C(=O)NS(=O)(=O)c4ccc(N[C@H]5CCCNC5=O)c([N+](=O)[O-])c4)c(Oc4cnc5[nH]ccc5c4)c3)CC2)=C(c2ccc(Cl)cc2)C1` [Compound 160, 4-(4-{[2-(4-chlorophenyl)-4,4-dimethylcyclohex-1-en-1-yl]methyl}piperazin-1-yl)-N-[(3-nitro-4-{[(3S)-2-oxopiperidin-3-yl]amino}phenyl)sulfonyl]-2-(1H-pyrrolo[2,3-b]pyridin-5-yloxy)benzamide] the figure was less than 10 pM; with `CC1(C)CCC(CN2CCN(c3ccc(C(=O)NS(=O)(=O)c4ccc(NC5CCN(C(C)(C)C)CC5)c(S(=O)(=O)C(F)(F)F)c4)c(Oc4cnc5[nH]ccc5c4)c3)CC2)=C(c2ccc(Cl)cc2)C1` [Compound 240, N-({4-[(1-tert-butylpiperidin-4-yl)amino]-3-[(trifluoromethyl)sulfonyl]phenyl}sulfonyl)-4-(4-{[2-(4-chlorophenyl)-4,4-dimethylcyclohex-1-en-1-yl]methyl}piperazin-1-yl)-2-(1H-pyrrolo[2,3-b]pyridin-5-yloxy)benzamide], less than 10 pM; with `CC1(C)CCC(CN2CCN(c3ccc(C(=O)NS(=O)(=O)c4cnc(OCC5CCOCC5)c(Cl)c4)c(Oc4cnc5[nH]ccc5c4)c3)CC2)=C(c2ccc(Cl)cc2)C1` [Compound 40, 4-(4-{[2-(4-chlorophenyl)-4,4-dimethylcyclohex-1-en-1-yl]methyl}piperazin-1-yl)-N-{[5-chloro-6-(tetrahydro-2H-pyran-4-ylmethoxy)pyridin-3-yl]sulfonyl}-2-(1H-pyrrolo[2,3-b]pyridin-5-yloxy)benzamide], less than 10 pM.
